# How the values were obtained:
# Type in all cases: cell-based
# E. coli DH5α = assay: Antibacterial activity: MIC and growth curve against E. coli DH5α in 96-well plate; settings: minimal inhibitory concentration against E. coli DH5α; 96-well plate, 5×10^5 CFU/mL, 37° C., judged after 8 h
# How it was run: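 MIC taken as lowest protein level with no bacterial growth, tracked by A600 every 30 min during 37 °C, 175 rpm culture. Two-fold protein series 50-12.5 μg/mL final, triplicate wells, against 5×10^5 CFU/mL of LB-washed mid-log cells.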
# Enterobacter cloacae = assay: MIC against Gram-negative bacteria: Enterobacter cloacae; settings: for MIC (μg/mL) E. cloacae / MIC against E. cloacae: 5×10^5 CFU/mL
# How it was run: (§1)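 The recombinant human-originated EGF domain proteins were serially diluted two-fold against bacteria at 5×10^5 CFU/mL in LB medium. After shaken incubation at 37° C, the lowest concentration with no bacterial growth was recorded as the MIC.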
# Serratia marcescens = assay: MIC against Gram-negative bacteria: Serratia marcescens; settings: for MIC (μg/mL) S. marcescens / MIC against S. marcescens: 5×10^5 CFU/mL
# How it was run: as §1
# Moraxella catarrhalis = assay: MIC against Gram-negative bacteria: Moraxella catarrhalis; settings: for MIC (μg/mL) M. catarrhalis / MIC against M. catarrhalis: 5×10^5 CFU/mL
# How it was run: as §1
# Aeromonas hydrophila = assay: MIC against Gram-negative bacteria: Aeromonas hydrophila; settings: for MIC (μg/mL) A. hydrophila / MIC against A. hydrophila: 5×10^5 CFU/mL
# How it was run: as §1
# Citrobacter diversus = assay: MIC against Gram-negative bacteria: Citrobacter diversus; settings: for MIC (μg/mL) C. diversus / MIC against C. diversus: 5×10^5 CFU/mL
# How it was run: as §1
# E. coli BL21 = assay: MIC against Gram-negative bacteria: E. coli BL21; settings: for MIC (μg/mL) E. coli BL21 / MIC against E. coli BL21: 5×10^5 CFU/mL
# How it was run: as §1
# Proteus vulgaris = assay: MIC against Gram-negative bacteria: Proteus vulgaris; settings: for MIC (μg/mL) P. vulgaris / MIC against P. vulgaris: 5×10^5 CFU/mL
# How it was run: as §1
# Klebsiella pneumonia = assay: MIC against Gram-negative bacteria: Klebsiella pneumonia; settings: for MIC (μg/mL) K. pneumonia / MIC against K. pneumonia: 5×10^5 CFU/mL
# How it was run: as §1
# Pseudomonas aeruginosa = assay: MIC against Gram-negative bacteria: Pseudomonas aeruginosa; settings: for MIC (μg/mL) P. aeruginosa / MIC against P. aeruginosa: 5×10^5 CFU/mL
# How it was run: as §1
# Proteus mirabilis = assay: MIC against Gram-negative bacteria: Proteus mirabilis; settings: for MIC (μg/mL) P. mirabilis / MIC against P. mirabilis: 5×10^5 CFU/mL
# How it was run: as §1
# [1] = E. cloacae, 10 h cultivation at 37° C.
# [2] = S. marcescens, 10 h cultivation at 37° C.
# [3] = M. catarrhalis, 10 h cultivation at 37° C.
# [4] = A. hydrophila, 10 h cultivation at 37° C.
# [5] = C. diversus, 10 h cultivation at 37° C.
# [6] = E. coli BL21, 10 h cultivation at 37° C.
# [7] = P. vulgaris, 10 h cultivation at 37° C.
# [8] = K. pneumonia, 10 h cultivation at 37° C.
# [9] = P. aeruginosa, 10 h cultivation at 37° C.
# [10] = P. mirabilis, 10 h cultivation at 37° C.
# [11] = Enterobacter cloacae, 96-well plate, 37° C., 10 h
# [12] = Serratia marcescens, 96-well plate, 37° C., 10 h
# [13] = Moraxella catarrhalis, 96-well plate, 37° C., 10 h
# [14] = Aeromonas hydrophila, 96-well plate, 37° C., 10 h
# [15] = Citrobacter diversus, 96-well plate, 37° C., 10 h
# [16] = E. coli BL21, 96-well plate, 37° C., 10 h
# [17] = Proteus vulgaris, 96-well plate, 37° C., 10 h
# [18] = Klebsiella pneumonia, 96-well plate, 37° C., 10 h
# [19] = Pseudomonas aeruginosa, 96-well plate, 37° C., 10 h
# [20] = Proteus mirabilis, 96-well plate, 37° C., 10 h
# [21] = Enterobacter cloacae, 10 h cultivation at 37° C.
# [22] = Serratia marcescens, 10 h cultivation at 37° C.
# [23] = Moraxella catarrhalis, 10 h cultivation at 37° C.
# [24] = Aeromonas hydrophila, 10 h cultivation at 37° C.
# [25] = Citrobacter diversus, 10 h cultivation at 37° C.
# [26] = Proteus vulgaris, 10 h cultivation at 37° C.
# [27] = Klebsiella pneumonia, 10 h cultivation at 37° C.
# [28] = Pseudomonas aeruginosa, 10 h cultivation at 37° C.
# [29] = Proteus mirabilis, 10 h cultivation at 37° C.
substance,measurement,setting,value
PRT786 (YGKDCALICQCQNGADCDHISGQCTCRTGFMGRHCE; listed as Homo sapiens),MIC,E. coli DH5α,50 µg/mL
same,MIC (μg/mL) E. cloacae,Enterobacter cloacae; [1],12.5 µg/mL
same,MIC (μg/mL) S. marcescens,Serratia marcescens; [2],12.5 µg/mL
same,MIC (μg/mL) M. catarrhalis,Moraxella catarrhalis; [3],12.5 µg/mL
same,MIC (μg/mL) A. hydrophila,Aeromonas hydrophila; [4],12.5 µg/mL
same,MIC (μg/mL) C. diversus,Citrobacter diversus; [5],25 µg/mL
same,MIC (μg/mL) E. coli BL21,E. coli BL21; [6],25 µg/mL
same,MIC (μg/mL) P. vulgaris,Proteus vulgaris; [7],12.5 µg/mL
same,MIC (μg/mL) K. pneumonia,Klebsiella pneumonia; [8],50 µg/mL
same,MIC (μg/mL) P. aeruginosa,Pseudomonas aeruginosa; [9],12.5 µg/mL
same,MIC (μg/mL) P. mirabilis,Proteus mirabilis; [10],25 µg/mL
PRT982 (VLSPCESQPCQHGGQCRPSPGPGGGLTFTCHCAQPFWGPRCE; listed as Homo sapiens),MIC,E. coli DH5α,50 µg/mL
same,MIC,Enterobacter cloacae; [1],12.5 µg/mL
same,MIC,Serratia marcescens; [2],50 µg/mL
same,MIC,Moraxella catarrhalis; [3],12.5 µg/mL
same,MIC,Aeromonas hydrophila; [4],25 µg/mL
same,MIC,Citrobacter diversus; [5],50 µg/mL
same,MIC,E. coli BL21; [6],25 µg/mL
same,MIC,Proteus vulgaris; [7],12.5 µg/mL
same,MIC,Klebsiella pneumonia; [8],50 µg/mL
same,MIC,Pseudomonas aeruginosa; [9],12.5 µg/mL
same,MIC,Proteus mirabilis; [10],50 µg/mL
PRT132 (ISDRCLPNYCEHGGECSQSWSTFHCNCTNTGYRGATCH; listed as Homo sapiens),MIC,E. coli DH5α,25 µg/mL
same,MIC (μg/mL) E. cloacae,Enterobacter cloacae; [11],25 µg/mL
same,MIC (μg/mL) S. marcescens,Serratia marcescens; [12],12.5 µg/mL
same,MIC (μg/mL) M. catarrhalis,Moraxella catarrhalis; [13],12.5 µg/mL
same,MIC (μg/mL) A. hydrophila,Aeromonas hydrophila; [14],50 µg/mL
same,MIC (μg/mL) C. diversus,Citrobacter diversus; [15],25 µg/mL
same,MIC (μg/mL) E. coli BL21,E. coli BL21; [16],12.5 µg/mL
same,MIC (μg/mL) P. vulgaris,Proteus vulgaris; [17],50 µg/mL
same,MIC (μg/mL) K. pneumonia,Klebsiella pneumonia; [18],12.5 µg/mL
same,MIC (μg/mL) P. aeruginosa,Pseudomonas aeruginosa; [19],12.5 µg/mL
same,MIC (μg/mL) P. mirabilis,Proteus mirabilis; [20],25 µg/mL
PRT974 (EADPCLSRPCLHGGVCSAAHPGFRCTCLESFTGPQCQ; listed as Homo sapiens),MIC,E. coli DH5α,25 µg/mL
same,MIC,Enterobacter cloacae; [1],12.5 µg/mL
same,MIC,Serratia marcescens; [2],12.5 µg/mL
same,MIC,Moraxella catarrhalis; [3],12.5 µg/mL
same,MIC,Aeromonas hydrophila; [4],50 µg/mL
same,MIC,Citrobacter diversus; [5],25 µg/mL
same,MIC,E. coli BL21; [6],50 µg/mL
same,MIC,Proteus vulgaris; [7],25 µg/mL
same,MIC,Klebsiella pneumonia; [8],50 µg/mL
same,MIC,Pseudomonas aeruginosa; [9],12.5 µg/mL
same,MIC,Proteus mirabilis; [10],50 µg/mL
PRT580 (CDCDPMGSQDGGRCDSHDDPALGLVSGQCRCKEHVVGTRCQQCRDGFFGLSISDRLGCRR; listed as Homo sapiens),MIC,E. coli DH5α,12.5 µg/mL
same,MIC against E. cloacae,"Enterobacter cloacae; 96-well plate, 37° C., 10 h",12.5 µg/mL
same,MIC against S. marcescens,"Serratia marcescens; 96-well plate, 37° C., 10 h",12.5 µg/mL
same,MIC against M. catarrhalis,"Moraxella catarrhalis; 96-well plate, 37° C., 10 h",50 µg/mL
same,MIC against A. hydrophila,"Aeromonas hydrophila; 96-well plate, 37° C., 10 h",25 µg/mL
same,MIC against C. diversus,"Citrobacter diversus; 96-well plate, 37° C., 10 h",12.5 µg/mL
same,MIC against E. coli BL21,"E. coli BL21; 96-well plate, 37° C., 10 h",25 µg/mL
same,MIC against P. vulgaris,"Proteus vulgaris; 96-well plate, 37° C., 10 h",50 µg/mL
same,MIC against K. pneumonia,"Klebsiella pneumonia; 96-well plate, 37° C., 10 h",25 µg/mL
same,MIC against P. aeruginosa,"Pseudomonas aeruginosa; 96-well plate, 37° C., 10 h",12.5 µg/mL
same,MIC against P. mirabilis,"Proteus mirabilis; 96-well plate, 37° C., 10 h",12.5 µg/mL
PRT483 (DCRAVYDRYSDDFCSGHGQCNCGRCDCKAGWYGKKCE; listed as Homo sapiens),MIC,E. coli DH5α,12.5 µg/mL
same,MIC against E. cloacae,"Enterobacter cloacae; 96-well plate, 37° C., 10 h",12.5 µg/mL
same,MIC against S. marcescens,"Serratia marcescens; 96-well plate, 37° C., 10 h",50 µg/mL
same,MIC against M. catarrhalis,"Moraxella catarrhalis; 96-well plate, 37° C., 10 h",25 µg/mL
same,MIC against A. hydrophila,"Aeromonas hydrophila; 96-well plate, 37° C., 10 h",25 µg/mL
same,MIC against C. diversus,"Citrobacter diversus; 96-well plate, 37° C., 10 h",50 µg/mL
same,MIC against E. coli BL21,"E. coli BL21; 96-well plate, 37° C., 10 h",25 µg/mL
same,MIC against P. vulgaris,"Proteus vulgaris; 96-well plate, 37° C., 10 h",25 µg/mL
same,MIC against K. pneumonia,"Klebsiella pneumonia; 96-well plate, 37° C., 10 h",25 µg/mL
same,MIC against P. aeruginosa,"Pseudomonas aeruginosa; 96-well plate, 37° C., 10 h",50 µg/mL
same,MIC against P. mirabilis,"Proteus mirabilis; 96-well plate, 37° C., 10 h",12.5 µg/mL
PRT1345 (NINECSSSPCLNKGICVDGVAGYRCTCVKGFVGLHCE; listed as Homo sapiens),MIC,E. coli DH5α,12.5 µg/mL
same,MIC against E. cloacae,Enterobacter cloacae; [21],12.5 µg/mL
same,MIC against S. marcescens,Serratia marcescens; [22],50 µg/mL
same,MIC against M. catarrhalis,Moraxella catarrhalis; [23],25 µg/mL
same,MIC against A. hydrophila,Aeromonas hydrophila; [24],25 µg/mL
same,MIC against C. diversus,Citrobacter diversus; [25],50 µg/mL
same,MIC against E. coli BL21,E. coli BL21; [6],25 µg/mL
same,MIC against P. vulgaris,Proteus vulgaris; [26],25 µg/mL
same,MIC against K. pneumonia,Klebsiella pneumonia; [27],25 µg/mL
same,MIC against P. aeruginosa,Pseudomonas aeruginosa; [28],50 µg/mL
same,MIC against P. mirabilis,Proteus mirabilis; [29],12.5 µg/mL
PRT1328 (LINVCLTKNGGCSEFAICNHTGQVERTCTCKPNYIGDGFT; listed as Homo sapiens),MIC,E. coli DH5α,12.5 µg/mL
same,MIC against E. cloacae,Enterobacter cloacae; [11],50 µg/mL
same,MIC against S. marcescens,Serratia marcescens; [12],50 µg/mL
same,MIC against M. catarrhalis,Moraxella catarrhalis; [13],25 µg/mL
same,MIC against A. hydrophila,Aeromonas hydrophila; [14],25 µg/mL
same,MIC against C. diversus,Citrobacter diversus; [15],12.5 µg/mL
same,MIC against E. coli BL21,E. coli BL21; [16],12.5 µg/mL
same,MIC against P. vulgaris,Proteus vulgaris; [17],12.5 µg/mL
same,MIC against K. pneumonia,Klebsiella pneumonia; [18],12.5 µg/mL
same,MIC against P. aeruginosa,Pseudomonas aeruginosa; [19],50 µg/mL
same,MIC against P. mirabilis,Proteus mirabilis; [20],50 µg/mL
PRT70 (VDDPCTSSPCPPNSRCHDAWEDYSCVCDKGYLGINC; listed as Homo sapiens),MIC,E. coli DH5α,12.5 µg/mL
same,MIC (μg/mL) E. cloacae,Enterobacter cloacae; [11],12.5 µg/mL
same,MIC (μg/mL) S. marcescens,Serratia marcescens; [12],25 µg/mL
same,MIC (μg/mL) M. catarrhalis,Moraxella catarrhalis; [13],12.5 µg/mL
same,MIC (μg/mL) A. hydrophila,Aeromonas hydrophila; [14],25 µg/mL
same,MIC (μg/mL) C. diversus,Citrobacter diversus; [15],12.5 µg/mL
same,MIC (μg/mL) E. coli BL21,E. coli BL21; [16],12.5 µg/mL
same,MIC (μg/mL) P. vulgaris,Proteus vulgaris; [17],12.5 µg/mL
same,MIC (μg/mL) K. pneumonia,Klebsiella pneumonia; [18],25 µg/mL
same,MIC (μg/mL) P. aeruginosa,Pseudomonas aeruginosa; [19],12.5 µg/mL
same,MIC (μg/mL) P. mirabilis,Proteus mirabilis; [20],50 µg/mL
PRT1448 (ACREGRFGQSCQEQCPGISGCRGLTFCLPDPYGCSCGSGWRGSQCQ; listed as Homo sapiens),MIC,E. coli DH5α,25 µg/mL
same,MIC against E. cloacae,Enterobacter cloacae; [21],50 µg/mL
same,MIC against S. marcescens,Serratia marcescens; [22],25 µg/mL
same,MIC against M. catarrhalis,Moraxella catarrhalis; [23],50 µg/mL
same,MIC against A. hydrophila,Aeromonas hydrophila; [24],12.5 µg/mL
same,MIC against C. diversus,Citrobacter diversus; [25],25 µg/mL
same,MIC against E. coli BL21,E. coli BL21; [6],50 µg/mL
same,MIC against P. vulgaris,Proteus vulgaris; [26],12.5 µg/mL
same,MIC against K. pneumonia,Klebsiella pneumonia; [27],25 µg/mL
same,MIC against P. aeruginosa,Pseudomonas aeruginosa; [28],12.5 µg/mL
same,MIC against P. mirabilis,Proteus mirabilis; [29],25 µg/mL

# From patent US9833497B2, “Human originated EGF domain proteins and use of the same” (CHENGDU SOURCEBIO LIMITED-LIABILITY COMPANY, priority 2013, dated 2017)
